According to PubChem BioAssay (NCI):
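How tested: cells in 96-well plates exposed to compound for 48 hours at five concentrations. GI50 = concentration required for 50% inhibition of growth. TGI is the concentration that stops growth completely.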

Assays:
Assay in all cases: growth of human tumour cells (NCI), 48 h
[1] = system: 786-0 renal
[2] = system: A498 renal
[3] = system: A549 NSCLC
[4] = system: ACHN renal
[5] = system: BT-549 breast
[6] = system: CAKI-1 renal
[7] = system: CCRF-CEM leukemia
[8] = system: COLO 205 colon
[9] = system: DU-145 prostate
[10] = system: HCC-2998 colon
[11] = system: HCT-116 colon
[12] = system: HCT-15 colon
[13] = system: HL-60(TB) leukemia
[14] = system: HOP-62 NSCLC
[15] = system: HOP-92 NSCLC
[16] = system: HS 578T breast
[17] = system: HT29 colon
[18] = system: IGROV1 ovarian
[19] = system: K-562 leukemia
[20] = system: KM12 colon
[21] = system: LOX IMVI melanoma
[22] = system: M14 melanoma
[23] = system: MALME-3M melanoma
[24] = system: MCF7 breast
[25] = system: MDA-MB-231 breast
[26] = system: MDA-MB-435
[27] = system: MOLT-4 leukemia
[28] = system: NCI-H226 lung
[29] = system: NCI-H23 lung
[30] = system: NCI-H460 lung
[31] = system: NCI-H522 lung
[32] = system: NCI/ADR-RES ovarian
[33] = system: OVCAR-3 ovarian
[34] = system: OVCAR-4 ovarian
[35] = system: OVCAR-5 ovarian
[36] = system: OVCAR-8 ovarian
[37] = system: PC-3 prostate
[38] = system: RPMI-8226 leukemia
[39] = system: RXF 393 renal
[40] = system: SF-268 CNS
[41] = system: SF-295 CNS
[42] = system: SF-539 CNS
[43] = system: SK-MEL-2 melanoma
[44] = system: SK-MEL-28 melanoma
[45] = system: SK-MEL-5 melanoma
[46] = system: SK-OV-3 ovarian
[47] = system: SN12C renal
[48] = system: SNB-19 CNS
[49] = system: SNB-75 CNS
[50] = system: SR leukemia
[51] = system: SW-620 colon
[52] = system: T-47D breast
[53] = system: TK-10 renal
[54] = system: U251 CNS
[55] = system: UACC-257 melanoma
[56] = system: UACC-62 melanoma
[57] = system: UO-31 renal
[58] = system: EKVX NSCLC

C[n+]1c2ccccc2c(Nc2ccc(NS(=O)(=O)CCCCN=C(N)N)cc2)c2ccc(N)cc21
GI50 [1]: 3.8 µM | TGI [1]: > 100 µM | GI50 [2]: 0.32 µM | TGI [2]: 31.4 µM | GI50 [3]: < 0.0128 µM | TGI [3]: 16 µM | GI50 [4]: 2.79 µM | TGI [4]: > 100 µM | GI50 [5]: 35.2 µM | TGI [5]: > 100 µM | GI50 [6]: 10.1 µM | TGI [6]: > 100 µM | GI50 [7]: 0.303 µM | TGI [7]: > 35.9 µM | GI50 [8]: 1.67 µM | TGI [8]: > 100 µM | GI50 [9]: 0.163 µM | TGI [9]: 66.4 µM | GI50 [10]: 8.97 µM | TGI [10]: > 100 µM | GI50 [11]: 1.49 µM | TGI [11]: > 100 µM | GI50 [12]: 50.9 µM | TGI [12]: > 100 µM | GI50 [13]: 1.64 µM | TGI [13]: > 56.1 µM | GI50 [14]: 0.217 µM | TGI [14]: 26.6 µM | GI50 [15]: 1.92 µM | TGI [15]: 52.9 µM | GI50 [16]: 2.79 µM | TGI [16]: 52.3 µM | GI50 [17]: 1.02 µM | TGI [17]: 84.5 µM | GI50 [18]: 2.92 µM | TGI [18]: > 100 µM | GI50 [19]: 2.6 µM | TGI [19]: > 100 µM | GI50 [20]: 3.5 µM | TGI [20]: > 79.1 µM | GI50 [21]: 1.82 µM | TGI [21]: > 100 µM | GI50 [22]: 4.14 µM | TGI [22]: > 100 µM | GI50 [23]: 4.06 µM | TGI [23]: 35.2 µM | GI50 [24]: 0.0429 µM | TGI [24]: > 81.2 µM | GI50 [25]: 43.6 µM | TGI [25]: > 100 µM | GI50 [26]: 20.4 µM | TGI [26]: > 100 µM | GI50 [27]: 0.0212 µM | GI50 [28]: 0.128 µM | TGI [28]: 31.2 µM | GI50 [29]: 0.152 µM | TGI [29]: 90.4 µM | TGI [30]: 12.1 µM | GI50 [31]: 2.03 µM | TGI [31]: 25.6 µM | GI50 [32]: > 100 µM | TGI [32]: > 100 µM | GI50 [33]: 10.2 µM | TGI [33]: > 80.2 µM | GI50 [34]: 5.4 µM | TGI [34]: > 100 µM | GI50 [35]: 41.8 µM | TGI [35]: > 100 µM | GI50 [36]: 2.48 µM | TGI [36]: > 100 µM | GI50 [37]: 8.47 µM | TGI [37]: > 100 µM | GI50 [38]: 1.43 µM | TGI [38]: 23.3 µM | GI50 [39]: 15.7 µM | TGI [39]: > 70.8 µM | GI50 [40]: 2.16 µM | TGI [40]: > 85.5 µM | GI50 [41]: 0.0785 µM | TGI [41]: > 100 µM | GI50 [42]: 3.37 µM | TGI [42]: > 100 µM | GI50 [43]: 18.5 µM | TGI [43]: 50.6 µM | GI50 [44]: 11.2 µM | TGI [44]: > 72.3 µM | GI50 [45]: 1.2 µM | TGI [45]: 15.2 µM | GI50 [46]: 2.77 µM | TGI [46]: > 100 µM | GI50 [47]: 0.0443 µM | TGI [47]: > 100 µM | GI50 [48]: 0.444 µM | TGI [48]: > 100 µM | GI50 [49]: 1.48 µM | TGI [49]: > 100 µM | GI50 [50]: 0.138 µM | TGI [50]: > 26.3 µM | GI50 [51]: 4.88 µM | TGI [51]: > 100 µM | GI50 [52]: 0.222 µM | TGI [52]: 13.5 µM | GI50 [53]: 6.47 µM | TGI [53]: 58.3 µM | GI50 [54]: 0.22 µM | TGI [54]: 54 µM | GI50 [55]: 21.7 µM | TGI [55]: > 95.6 µM | GI50 [56]: 0.917 µM | TGI [56]: 22.4 µM | GI50 [57]: 6.5 µM | TGI [57]: > 100 µM

COc1c2c(c(CC=C(C)C)c3oc(=O)c(-c4ccc(O)cc4)c(O)c13)OC(C)(C)C=C2
TGI [1]: 71.3 µM | TGI [2]: > 100 µM | TGI [3]: > 100 µM | TGI [4]: 92.7 µM | TGI [5]: > 100 µM | TGI [6]: > 100 µM | TGI [7]: 76.8 µM | TGI [8]: 40.2 µM | TGI [9]: > 100 µM | TGI [58]: 95.8 µM | TGI [10]: 48.1 µM | TGI [11]: 37.5 µM | TGI [12]: 60.7 µM | TGI [13]: 51 µM | TGI [14]: 86.2 µM | TGI [15]: 58.7 µM | TGI [16]: > 100 µM | TGI [17]: > 100 µM | TGI [18]: 44.9 µM | TGI [19]: > 100 µM | TGI [20]: 35 µM | TGI [21]: > 100 µM | TGI [22]: 73.3 µM | TGI [23]: 70.2 µM | TGI [24]: 54.3 µM | TGI [25]: 65 µM | TGI [26]: 45.7 µM | TGI [27]: 91 µM | TGI [28]: 62 µM | TGI [29]: > 100 µM | TGI [30]: 68.4 µM | TGI [31]: 62.9 µM | TGI [32]: 93.7 µM | TGI [33]: 67.2 µM | TGI [34]: 58 µM | TGI [35]: > 100 µM | TGI [36]: > 100 µM | TGI [37]: > 100 µM | TGI [38]: 75.3 µM | TGI [39]: 12.4 µM | TGI [40]: 41 µM | TGI [41]: > 100 µM | TGI [42]: 32.8 µM | TGI [43]: 52.8 µM | TGI [44]: 73 µM | TGI [45]: 25.8 µM | TGI [47]: > 100 µM | TGI [48]: > 100 µM | TGI [50]: 79.9 µM | TGI [51]: > 100 µM | TGI [52]: > 100 µM | TGI [53]: > 100 µM | TGI [54]: 27.8 µM | TGI [55]: > 100 µM | TGI [56]: 46.6 µM | TGI [57]: > 100 µM
